Measurements from patent US11046691B1 (IDEAYA BIOSCIENCES, INC., priority 2018, dated 2021).

Target: hMAT2A (Homo sapiens (Human), UniProt P31153)
Test: Phosphate Sensor Fluorescence Assay (MAT2A enzyme inhibition)
Assay type: biochemical
Settings: L-methionine 500 uM, ATP 500 uM
Method: The ability of the compound of present disclosure to inhibit MAT2A enzyme was determined using the Malachite Green or Phosphate Sensor Fluorescence Assay described below.
B. Phosphate Sensor Fluorescence Assay
MAT2A enzyme is incubated with a test compound in DMSO or DMSO and its substrates (L-methionine and ATP) in a microtiter plate. The enzymatic reaction is stopped by the addition of Working Phosphate Sensor Mixture. The plate is analyzed for fluorescence at 450 nm.
Assay Buffer: 50 mM Tris, pH 7.5/50 mM KCl/10 mM MgCl2/0.01% Brij-35/1 mM DTT/0.1% BGG/40 nM PNP/6 uM 7-MEG
L-methionine: 500 uM before the addition of Working Phosphate Sensor Mixture
ATP: 500 uM before the addition of Working Phosphate Sensor Mixture
Test compounds or DMSO were added to the appropriate well suing D300e digital dispenser. 5 μl/well of Assay Buffer was added to the wells corresponding to the negative control and 5 μl/well of MAT2A was added to all the wells except for those corresponding to the negative control. After incubating the plate at room temperature for 15 minutes, 5 μl/well of the 1 mM L-methionine/1 mM ATP mixture was added to all wells. The plate was centrifuged at 1000 rpm for 1 minute and then incubated at room temperature for 1 hour. 5 μl of the Working Phosphate Sensor Mixture was added to all wells and the plate was centrifuged at 1000 rpm for 1 minute. The plate was read for fluorescence at 450 nm after exciting at 430 nm.
Percent inhibition was calculated in Chemical and Biological Information System (CBIS), (ChemInnovation Software Inc.). Curves were fitted by CBIS as % inhibition vs. log [compound concentration] using a 4-parameter inhibition model. Fit=(A+((B−A)/(1+((C/x)^D)))) Res=(y−fit)

hMAT2A, sequence (P31153 whole entry): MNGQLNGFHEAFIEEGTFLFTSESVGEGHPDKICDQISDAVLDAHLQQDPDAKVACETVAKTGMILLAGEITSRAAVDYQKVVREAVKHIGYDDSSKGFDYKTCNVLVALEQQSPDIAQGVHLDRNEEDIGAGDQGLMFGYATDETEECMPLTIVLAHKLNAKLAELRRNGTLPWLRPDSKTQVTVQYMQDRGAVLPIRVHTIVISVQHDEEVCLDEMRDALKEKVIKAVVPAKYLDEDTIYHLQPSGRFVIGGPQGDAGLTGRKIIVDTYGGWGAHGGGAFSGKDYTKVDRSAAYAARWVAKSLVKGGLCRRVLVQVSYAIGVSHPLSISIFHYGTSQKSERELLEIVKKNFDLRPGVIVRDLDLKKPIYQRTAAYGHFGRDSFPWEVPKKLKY

Row | SMILES | IC50 (class symbols) | IC50 (numeric bound)
1 | O=c1nc(NCC(F)(F)F)c2ccc(C(F)(F)F)cc2n1-c1ncccn1 [Example 121] | 0.2 to 0.5 µM | 
2 | O=c1nc(NCC(F)F)c2ccc(C(F)(F)F)cc2n1-c1ncccn1 [Example 122, 4-[(2,2-difluoroethyl)amino]-1-pyrimidin-2-yl-7-(trifluoromethyl)hydro-quinazolin-2-one] | < 0.2 µM | 
3 | CNc1nc(=O)n(-c2ncccn2)c2cc(C(F)(F)F)ccc12 [Example 123, 4-(methylamino)-1-pyrimidin-2-yl-7-(trifluoromethyl)hydroquinazolin-2-one] | 0.2 to 0.5 µM | 
4 | Nc1nc(=O)n(-c2ncccn2)c2cc(C(F)(F)F)ccc12 [Example 124, 4-amino-1-pyrimidin-2-yl-7-(trifluoro-methyl)hydroquinazolin-2-one] | 0.5 to 1 µM | 
5 | Cc1ccccc1-n1c(=O)nc(N)c2ccc(C(F)(F)F)cc21 [Example 125, 4-amino-1-(2-methylphenyl)-7-(trifluoromethyl)hydroquinazolin-2-one] | < 0.2 µM | 
6 | Cc1ccccc1-n1c(=O)nc(NCC(F)(F)F)c2ccc(C(F)(F)F)cc21 [Example 126, 1-(2-methylphenyl)-4-[(2,2,2-trifluoro-ethyl)amino]-7-(trifluoromethyl)hydro-quinazolin-2-one] | < 0.2 µM | 
7 | Cc1ccccc1-n1c(=O)nc(NCC(F)F)c2ccc(C(F)(F)F)cc21 [Example 127, 4-[(2,2-difluoroethyl)amino]-1-(2-methylphenyl)-7-(trifluoromethyl)hydro-quinazolin-2-one] | < 0.2 µM | 
8 | Cc1ccccc1-n1c(=O)nc(N2CC[C@@H](O)C2)c2ccc(C(F)(F)F)cc21 [Example 128, 4-((3R)-3-hydroxypyrrolidin-1-yl)-1-(2-methylphenyl)-7-(trifluoromethyl)hydro-quinazolin-2-one] | < 0.2 µM | 
9 | CNc1nc(=O)n(-c2ccccc2C)c2cc(C(F)(F)F)ccc12 [Example 129, 4-(methylamino)-1-(2-methylphenyl)-7-(trifluoromethyl)hydroquinazolin-2-one] | < 0.2 µM | 
10 | O=c1[nH]c(=O)n(-c2ccccc2)c2cc(C3CC3)ccc12 [Example 130, 7-cyclopropyl-1-phenyl-1,3-dihydro-quinazoline-2,4-dione] | 0.5 to 1 µM | 
11 | CNc1nc(=O)n(-c2ccccc2)c2cc(Cl)cc(OC3CN(C(=O)OC(C)(C)C)C3)c12 [Example 132, tert-butyl 3-[7-chloro-4-(methylamino)-2-oxo-1-phenylhydroquinazolin-5-yl-oxy]azetidinecarboxylate] |  | > 10 µM
12 | CNc1nc(=O)n(-c2cccc(C(=O)O)c2)c2cc(Cl)ccc12 [Example 133, 3-[7-chloro-4-(methylamino)-2-oxo-hydroquinazolin-1-yl]benzoic acid] | < 0.2 µM | 
13 | CNc1nc(=O)n(-c2cccc(C(N)=O)c2)c2cc(Cl)ccc12 [Example 134, 3-[7-chloro-4-(methylamino)-2-oxo-hydroquinazolin-1-yl]benzamide] | < 0.2 µM | 
14 | O=c1nc(NCC(F)(F)F)c2ccc(C(F)(F)F)nc2n1-c1ccccc1 [Example 136, 1-phenyl-4-((2,2,2-trifluoroethyl)amino)-7-(trifluoromethyl)pyrido[2,3-d]-pyrimidin-2(1H)-one] | < 0.2 µM | 
15 | O=c1nc(NCC(F)F)c2ccc(C(F)(F)F)nc2n1-c1ccccc1 [Example 137, 4-((2,2-difluoroethyl)amino)-1-phenyl-7-(trifluoromethyl)pyrido[2,3-d]pyrimidin-2(1H)-one] | < 0.2 µM | 
16 | Nc1nc(=O)n(-c2ccccc2)c2nc(C(F)(F)F)ccc12 [Example 138, 4-amino-1-phenyl-7-(trifluoromethyl)-hydropyridino[2,3-d]pyrimidin-2-one] | < 0.2 µM | 
17 | N#Cc1cccc(-n2c(=O)nc(N3CC(O)C3)c3ccc(C(F)(F)F)cc32)c1 [Example 139, 3-[4-(3-hydroxyazetidinyl)-2-oxo-7-(trifluoromethyl)hydroquinazolinyl]-benzenecarbonitrile] | < 0.2 µM | 
18 | N#Cc1cccc(-n2c(=O)nc(N)c3ccc(C(F)(F)F)cc32)c1 [Example 140, 3-[4-amino-2-oxo-7-(trifluoromethyl)-hydroquinazolinyl]benzenecarbonitrile] | < 0.2 µM | 
19 | N#Cc1cccc(-n2c(=O)nc(N3CC[C@@H](O)C3)c3ccc(C(F)(F)F)cc32)c1 [Example 141] | < 0.2 µM | 
20 | CNc1nc(=O)n(-c2cccc(C#N)c2)c2cc(C(F)(F)F)ccc12 [Example 142, 3[4-(methylamino)-2-oxo-7-(trifluoro-methyl)hydroquinazolinyl]benzene-carbonitrile] | < 0.2 µM | 
21 | CNc1nc(=O)n(-c2ccccc2)c2cc(C(F)F)ccc12 [Example 143, 7-(difluoromethyl)-4-(methylamino)-1-phenylhydroquinazolin-2-one] | < 0.2 µM | 
22 | COc1nc(=O)n(-c2ccccc2)c2cc(C(F)(F)F)ccc12 [Example 144, 4-methoxy-1-phenyl-7-(trifluoromethyl)-hydroquinazolin-2-one] | 0.2 to 0.5 µM | 
23 | O=c1nc(N2CC[C@@H](O)C2)c2ccc(C(F)(F)F)cc2n1-c1ccccc1 [Example 145, 4-((3R)-3-hydroxypyrrolidinyl)-1-phenyl-7-(trifluoromethyl)hydro-quinazolin-2-one] | < 0.2 µM | 
24 | CN(C)C(=O)C1CN(c2nc(=O)n(-c3ccccc3)c3cc(Cl)ccc23)C1 [Example 159, [1-(7-chloro-2-oxo-1-phenylhydro-quinazolin-4-yl)azetidin-3-yl]-N,N-dimethylcarboxamide] | < 0.2 µM | 

The remaining lines, values ahead:

Row | IC50 (class symbols) | IC50 (numeric bound) | SMILES
25 | < 0.2 µM |  | Nc1nc(=O)n(-c2ccccc2)c2cc(C(F)(F)F)ccc12 [Example 146, 4-amino-1-phenyl-7-(trifluoromethyl)-hydroquinazolin-2-one]
26 | < 0.2 µM |  | Cc1ccccc1-n1c(=O)[nH]c(=O)c2ccc(C(F)(F)F)cc21 [Example 147, 1-(2-methylphenyl)-7-(trifluoromethyl)-1,3-dihydroquinazoline-2,4-dione]
27 | < 0.2 µM |  | Nc1nc(=O)n(-c2ccccc2Br)c2cc(Cl)ccc12 [Example 149, 4-amino-1-(2-bromophenyl)-7-chloro-hydroquinazolin-2-one]
28 | < 0.2 µM |  | COc1ccccc1-n1c(=O)nc(N2CC[C@@H](O)C2)c2ccc(Cl)cc21 [Example 151, 4-((3R)-3-hydroxypyrrolidin-1-yl)-7-chloro-1-(2-methoxyphenyl)hydro-quinazolin-2-one]
29 | 0.2 to 0.5 µM |  | CNc1nc(=O)n(-c2cccc(C#N)c2)c2cc(Cl)ccc12 [Example 155, 3-[7-chloro-4-(methylamino)-2-oxo-hydroquinazolinyl]benzenecarbonitrile]
30 | 1 to 10 µM |  | O=C(O)c1cccc(-n2c(=O)[nH]c(=O)c3ccc(Cl)cc32)c1 [Example 156, 3-(7-chloro-4-hydroxy-2-oxohydro-quinazolinyl)benzoic acid]
31 | < 0.2 µM |  | CNc1nc(=O)n(-c2cccc(O)c2C)c2cc(Cl)ccc12 [Example 157, 7-chloro-1-(3-hydroxy-2-methylphenyl)-4-(methylamino)hydroquinazolin-2-one]
32 | < 0.2 µM |  | CNc1nc(=O)n(-c2ccccc2)c2cc(CCl)ccc12 [Example 160, 7-(chloromethyl)-4-(methylamino)-1-phenylhydroquinazolin-2-one]
33 | < 0.2 µM |  | O=c1nc(N2CC(O)C2)c2ccc(C(F)(F)F)nc2n1-c1ccccc1Cl [Example 161, 1-(2-chlorophenyl)-4-(3-hydroxy-azetidinyl)-7-(trifluoromethyl)pyrido-[2,3-d]pyrimidin-2(1H)-one]
34 | < 0.2 µM |  | N#Cc1cccc(-n2c(=O)nc(N3CC(O)C3)c3ccc(C(F)(F)F)nc32)c1 [Example 162, 3-(4-(3-hydroxyazetidin-1-yl)-2-oxo-7-(trifluoromethyl)pyrido[2,3-d]pyrimidin-1(2H)-yl)benzonitrile]
35 | < 0.2 µM |  | Nc1nc(=O)n(-c2ccccc2)c2cc(Br)ccc12 [Example 163, 4-amino-7-bromo-1-phenylhydro-quinazolin-2-one]
36 | < 0.2 µM |  | O=c1nc(N2CC(O)C2)c2ccc(C(F)(F)F)cc2n1-c1ccccc1 [Example 164]
37 | < 0.2 µM |  | Cc1ccccc1-n1c(=O)nc(N2CC(O)C2)c2ccc(C(F)(F)F)nc21 [Example 165]
38 | 0.2 to 0.5 µM |  | O=c1[nH]c(=O)n(-c2ccccc2)c2cc(C(F)F)ccc12 [Example 166, 7-(difluoromethyl)-1-phenyl-1,3-dihydroquinazoline-2,4-dione]
39 | < 0.2 µM |  | Nc1nc(=O)n(-c2ccccc2Cl)c2nc(C(F)(F)F)ccc12 [Example 167, 4-amino-1-(2-chlorophenyl)-7-(trifluoro-methyl)pyrido[2,3-d]pyrimidin-2(1H)-one]
40 | < 0.2 µM |  | N#Cc1cccc(-n2c(=O)nc(N)c3ccc(C(F)(F)F)nc32)c1 [Example 168, 3-(4-amino-2-oxo-7-(trifluoromethyl)-pyrido[2,3-d]pyrimidin-1(2H)-yl)-benzonitrile]
41 | < 0.2 µM |  | Cc1ccccc1-n1c(=O)nc(N)c2ccc(C(F)(F)F)nc21 [Example 169, 4-amino-1-(2-methylphenyl)-7-(trifluoromethyl)pyrido[2,3-d]pyrimidin-2(1H)-one]
